Where no end group is shown, it is not given here. [ ]: non-standard residue; d: D form. pGlu = O=C1CC[C@@H](C(=O)O)N1
What was measured:
[1] = system: IMGE-5 cells; experiment: IMGE-5 cell proliferation, [3H]-thymidine incorporation; format: cell-based, mice; settings: for S (%), maximum % stimulation: IMGE cells, thymidine uptake, best fit at saturating concentration; for Effect of DFO on proliferation induced by the peptide: peptide 100 nM, plus or minus 1 μM DFO, [3H]-thymidine incorporation; for Inhibition of Ggly-stimulated IMGE-5 cell proliferation by iron chelator: [3H]-thymidine incorporation (FIG. 10)
Experimental: In some cases cell proliferation was also measured by [^3H]-thymidine incorporation as described previously (Oiry et al., 2000). Briefly, IMGE-5 cells (10^5/well) were seeded in 24-well plates in medium containing 10% FBS and 1 unit/ml γ-interferon. On the next day cells were serum starved and shifted to 39° C. for 24 hr. Cells were then incubated with or without various compounds at 39° C. for 17 h in medium supplemented with 0.2% bovine serum albumin only. Cells were incubated with 0.5 μCi of [^3H] thymidine in the same medium at 39° C. for 4 h, washed twice with PBS (2.7 mM KCl, 142 mM NaCl, 1.5 mM KH2PO4, 10 mM Na2HPO4, pH 6.95) containing 0.2% bovine serum albumin and incubated at 4° C. for 30 min with 5% trichloroacetic acid. Finally cells were washed with 95% ethanol to remove unincorporated [^3H] thymidine, and lysed with 1 M NaOH. Lysates were transferred to counting vials and neutralized with 1M HCl. The radioactivity of each lysate was counted in a β-counter after the addition of 10 ml of Pico-fluor 40 solution (Packard, Meriden, Conn.).
In some experiments IMGE-5 cells were seeded in a 96-well plate at a density of 3-5×10^3 cells/well in.DMEM containing 10% FBS, and cultured at 33° C.. On the following day, the cells were serum-starved at 33° C. for 24 h. […] The cells were cultured at 39° C. for 24 h, and then harvested using a NUNC cell harvester. The amount of ^3H-thymidine incorporated through DNA synthesis was detected with a β-counter (Packard, Meriden, Conn.). […]

[2] = system: IMGE-5 cells; experiment: IMGE-5 cell proliferation, MTT assay; format: cell-based, mice; settings: MTT assay; peptides shown at 1 nM (FIGS. 7A, 8A)
Experimental: (§1) The IMGE-5 cell line was established from the gastric mucosa of mice transgenic for a temperature-sensitive mutant of the SV40 large T antigen (Hollande et al, 2001). IMGE-5 cells were generally grown at 33° C. in DMEM containing 1 unit/ml γ-interferon, 10% FBS, 100 U/ml penicillin, and 100 μg/ml streptomycin (permissive conditions). For all experiments, cells were transferred to 39° C. in the same medium without […] (non-permissive conditions), where they display differentiated characteristics such as expression of functional adherens and tight junctions. All experiments have been performed on cells between passages 20 and 35.
A colorimetric assay was used to measure cell proliferation. Briefly, IMGE-5 cells were seeded in a 96-well plate at a density of 10^4 cells/well in DMEM containing 10% FBS and antibiotics. The following day, cells were synchronized in Go by incubation for 24 h in the same medium lacking FBS. The medium was replaced the next day with fresh medium containing 1% FBS and antibiotics and the peptides under investigation, and incubation was continued for 72 h. 15 μl of 5 mg/ml 3-(4,5-dimethylthiazol-2-yl)-2-5-diphenyltetrazolium bromide (MTT, Sigma, St Louis Mo.) was added per well, and the plate was incubated at 37° C. for 4 h before the medium was discarded. 200 μl 40 mM HCl in isopropanol was added to lyse the cells, and the absorbance at 570 nm was read on a BioRad Model 550 Microplate reader (BioRad, Hercules, Calif.).

[3] = system: IMGE-5 cells; experiment: Wound healing / cell migration assay; format: cell-based, mice; settings: wound healing assay; fragments and mutants shown at 1 nM (FIGS. 7B, 8B)
Experimental: as §1
In order to assess the effects of different stimuli on cell migration, wound healing experiments were performed as detailed elsewhere (Hollande et al, 1997). In brief, IMGE-5 cells were grown in 12-well plates in DMEM at 33° C. until they reached 80% confluence, then shifted to 39° C. and starved of serum for 24 h. The confluent monolayer was wounded using a 20 μl-pipette tip, and cells were then washed 3 times with phosphate-buffered saline (PBS: 2.7 mM KCl, 1.5 MM KH2PO4, 142 mM NaCl, and 10 mM Na2HPO4, pH 6.95) and treated with or without different compounds in DMEM with antibiotics. Morphology and migration of cells were observed and photographed immediately, and after treatment for 17 and 24 h. Wound width was measured at six different positions on the 24 h photographs, and averages calculated.

[4] = Quenching of peptide tryptophan fluorescence by ferric ions (stoichiometry, apparent Kd); format: binding; settings: 10 mM sodium acetate pH 4.0, 100 mM NaCl, 0.005% Tween 20; mean ± S.E.; read-out: Kd (μM), apparent dissociation constant for ferric ions
Experimental: The tryptophan fluorescence of peptide solutions was measured in 3 mL quartz cuvettes thermostated at […], with a Spex Fluorolog-2 spectrofluorimeter (Spex Industries, Edison, N.J.), with the excitation and emission wavelengths set at 290 and 345 nm, respectively. The quenching of tryptophan fluorescence induced by the binding of metal ions was used to calculate the fraction of binding sites occupied, fa: fa=(yf−y)/(yf−yb) where y is the fluorescence signal at a given concentration of metal ions and yb and yf are the signals when the binding sites are fully occupied and unoccupied, respectively (Winzor et al, 1995). The stoichiometry, p, and apparent dissociation constant, Kd, were then obtained, using the program Sigmastat (Jandel Scientific, San Rafael, Calif.), from the intercept and slope of a linear regression of the data transformed as described by Winzor and Sawyer (1995) in terms of the equation Cs/fa=pCa+Kd/(1−fa) where Cs is the total concentration of metal ions, and Ca is the total concentration of glycine-extended gastrin17. For the bismuth binding studies, the data was fitted by non-linear regression with the program Sigmaplot (Jandel Scientific, San Rafael, Calif.) to the equations for models with one binding site or two binding sites with identical affinities: fa=x/(Kd1+x) or to the model with two binding sites with different affinities: fa=(Kd1·x+Kd2·x+2x^2)/2(Kd1·Kd2+Kd1·x+Kd2·x+x^2) where x is the concentration of free metal ions, Kd1 is the first site dissociation constant and Kd2 is the second site dissociation constant. For the one-site model the value of x at any given total concentration of metal ions was obtained by exact solution of the appropriate quadratic (Malby et al, 2001). For the two-site models the value of x was obtained by an iterative Newton-Raphson procedure (Linse et al, 1991). Absorption Spectroscopy
The tryptophan fluorescence of progastrin6-80, glycine-extended gastrin17 and related peptides was measured in the presence of increasing concentrations of ferric ions in 10 mM sodium acetate, pH 4.0, 100 mM NaCl, 0.005% Tween 20. […] Values from the indicated number of independent experiments were combined to obtain the mean values (±S.E.) presented above. No binding of ferric ions to Ggly1-4 or Ggly12-18 was observed.
The tryptophan fluorescence of amidated gastrin17 and related peptides was measured in the presence of increasing concentrations of ferric ions at pH 4.0 (8). Values of the stoichiometry and the apparent dissociation constant (Kd) were obtained from linear transformations of the data presented in FIG. 20A by least squares fitting. Values from the indicated number of independent experiments were combined to obtain the mean values (±S.E.) presented above.

| Molecule | S (%), maximum % stimulation [1] | Effect of DFO on proliferation induced by the peptide [1] | Stimulation of IMGE-5 cell proliferation [2] | Stimulation of IMGE-5 cell migration [3] | other results |
| --- | --- | --- | --- | --- | --- |
| EEEEEA [Peptide E5A] | 29.1% | no significant reduction | – | – | – |
| Oc1c(I)cc(Cl)c2cccnc12 [clioquinol] | – | – | – | – | Inhibition of Ggly-stimulated IMGE-5 cell proliferation by iron chelator [1]: inhibited Ggly-stimulated IMGE-5 cell proliferation in a dose-dependent manner |
| LEEEEEA [LE5A] | 34.7% | lower in the presence of DFO, although the reduction did not reach significance | – | – | – |
| EEEEE [Peptide E5] | 22.5% | no significant reduction | – | – | – |
| COc1cccc2c1C(=O)c1c(O)c3c(c(O)c1C2=O)C[C@@](O)(C(=O)CO)C[C@@H]3O[C@H]1C[C@H](N)[C@H](O)[C@H](C)O1 [doxorubicin] | – | – | – | – | Inhibition of Ggly-stimulated IMGE-5 cell proliferation by iron chelator [1]: inhibited Ggly-stimulated IMGE-5 cell proliferation in a dose-dependent manner |
| EEEEEAY [Peptide E5AY] | 36.1% | significantly blocked by DFO | – | – | – |
| Ggly1-4: fragment of Ggly, residues 1-4, SEQ ID NO:6 ([pGlu]GPW; listed as Homo sapiens) | – | – | neither of these fragments stimulated proliferation | Nor did they stimulate migration | – |
| GglyE6A: Ggly mutant, Glu6 replaced by Ala, SEQ ID NO:10 ([pGlu]GPWLAEEEEAYGWMDFG; ends and bridges not checked) | – | – | to the same extent as Ggly | to the same extent as Ggly | Kd [4]: 0.23 ± 0.02 µM |
| LEEEEE [LE5] | 29.9% | no significant reduction | – | – | – |
| Ggly12-18: C-terminal heptapeptide of Ggly, SEQ ID NO:8 (YGWMDFG; listed as Homo sapiens) | – | – | neither of these fragments stimulated proliferation | Nor did they stimulate migration | – |
